Data on four molecules can be found in patent US8580752B2, “Aromatic amides as potentiators of bioefficacy of anti-infective drugs” (priority 2005, dated 2013).

One data set concerns S aureus ATCC 29213. Nature of the data set: MIC by checkerboard method. In kind it is cell-based, Staphylococcus aureus. Particulars: Staphylococcus aureus.
A further data set relates to MRSA 33. Nature of the data set: MIC by checkerboard method. Particulars: Staphylococcus aureus, S aureus MRSA 33. In kind it is cell-based.
Another data set has as its system MRSA 450. Put plainly: MIC by checkerboard method. Particulars: Staphylococcus aureus, S aureus MRSA 450. The format is cell-based.
The next data set deals with S epidermidis ATCC 12228. Nature of the data set: MIC by checkerboard method. The format is cell-based.
Another data set deals with B cereus RRL 101. Nature of the data set: MIC by checkerboard method. The format is cell-based.
The subject of data set [1] is MRSA. Nature of the data set: MIC by checkerboard method, comparison with piperine. The format is cell-based, Staphylococcus aureus. Particulars: Staphylococcus aureus, Tables 5A/5B.
Another data set deals with Gm −ve bacteria. Nature of the data set: microbe, parasite or virus in culture. In kind it is cell-based, Gram negative. Particulars: read-out: MIC Drug alone.
Another data set has as its system M. tb. Put plainly: MIC of anti infective drugs alone and with potentiators. In kind it is cell-based, Mycobacterium tuberculosis. Particulars: Mycobacterium tuberculosis, drug alone.
Data set [2] has as its system Staphylococcus aureus ATCC 29213. Nature of the data set: Systemic infection model of mice. Particulars: ATCC29213, iv, read-out: ED50 for ciprofloxacin. The format is in vivo, Swiss albino mice.
Protocol: The study was conducted to see the in vivo response of ciprofloxacin in combination with the above-mentioned potentiator. The Swiss albino mice were infected intravenously with Staphylococcus aureus ATCC 29213 (10^7 CFU/mouse). The infected mice were divided in groups and each group consisted of 6 mice. The treatment consisted of one dose i.e. 5 or 10 or 20 mg/kg immediately after the infection followed by the next dose after a gap of 6 hrs. The result was recorded as number of survivals each day.
A further data set has as its system MRSA 15187. Put plainly: MIC by checkerboard method. In kind it is cell-based. Particulars: Staphylococcus aureus; Mupirocin alone; S aureus MRSA 15187.
In data set [3] the test system is MRSA. Put plainly: Wound infection treatment in mice. In kind it is in vivo. Particulars: for Growth / Mean CFU: MRSA wound infection in mice. On the procedure:
The study was conducted to see the in vivo response of Mupirocin in combination with the above-mentioned potentiator. Wound area of 1.5 cm×1.5 cm was created on the skin of mice by abrasion with sand paper. An inoculum of 10^8 CFU/ml of MRSA was applied on to this wound area. The wound was treated for five days (two applications a day) with mupirocin cream and the other group with a formulation of mupirocin at ¼^th concentration and compound of formula 1a. […] (Table-6).

Data set [4] deals with Staphylococcus aureus, MRSA and Staphylococcus hemolyticus. Nature of the data set: Decrease in MIC of ciprofloxacin in combination. The format is cell-based. Particulars: bacterial species (Table-2).
The test system of data set [5] is S. aureus 29213, MRSA and M. tuberculosis H37Rv. Nature of the data set: Comparison of potentiating activity with piperine. In kind it is cell-based. Particulars: Ciprofloxacin, Amikacin, Rifampicin and Mupirocin (Table-5 A & B). On the procedure: Minimum Inhibitory Concentration (MIC) of antibacterial agents (Ciprofloxacin, Amikacin, Rifampicin and Mupirocin) was determined alone and in combination with compound of formula (1a). MIC of the abovementioned antibacterial agents was also determined in combination with piperine.

Another data set in a line: Acute toxicity study. In kind it is in vivo. Particulars: mice.
In data set [6] the test system is mice and guinea pig models infected with microorganisms. Put plainly: In vivo infection models, combinations with anti-infective agents. The text has this:
These combinations were also efficacious when tested in in vivo using mice and guinea pig models infected with microorganisms (table-7).

The subject of data set [7] is S. aureus ATCC 29213 (wild strain). Put plainly: Ethidium bromide accumulation and efflux. Particulars: compound 25 μg/ml, ethidium bromide 2 μg/ml.
Protocol: Briefly, for measurement of the level of accumulation, both the bacterial strains were grown overnight on Trypticase Soya Agar. Bacterial suspensions were prepared at an optical density at 550 nm of 0.2 in uptake buffer (NaCl, 110 mM; KCl, 7 mM; NH4Cl, 50 mM; Na2HPO4, 0.4 mM; Tris base, 52 mM; glucose, 0.2% adjusted to pH 7.5 with HCl) and were then exposed to ethidium bromide at a concentration of 2 μg/ml. The increase in fluorescence as ethidium bromide entered the cells was recorded fluorometrically with a Perkin-Elmer model LS50 spectrofluorimeter (excitation λ, 530 nm; emission λ, 600 nm) at 30° C.
For determining ethidium bromide loss, bacterial suspensions were prepared as described above and were exposed to ethidium bromide (2 μg/ml) in the presence of compound of formula 1a (25 μg/ml) for 30 min at 37° C. The cells were then pelleted by centrifugation and were resuspended in fresh uptake buffer. The loss of ethidium bromide from the cells was measured as a decrease in fluorescence (FIG. IB)
The mark [8] stands for this setting: Amikacin alone, read-out: MIC of Amikacin.
The mark [9] stands for this setting: Ciprofloxacin alone, read-out: MIC Ciprofloxacin.
Where [10] appears, read: Mupirocin alone, read-out: MIC of Mupirocin.
Where [11] appears, read: 2% Mupirocin, five days, two applications a day.
The mark [12] stands for this setting: 0.25% Mupirocin + 0.25% compound of formula 1.
Where [13] appears, read: 0.5% Mupirocin + 0.25% compound of formula 1.

Values after ≈ are worked out from the molar mass of the structure shown. Where two headings read alike, the source gives them in different places.

Description for Acute toxicity study: Parameters monitored were: Food/water consumption, body weight, organ weight, haematological and clinical chemistry profile.

On to `NCC[C@H](O)C(=O)N[C@@H]1C[C@H](N)[C@@H](O[C@H]2O[C@H](CN)[C@@H](O)[C@H](O)[C@H]2O)[C@H](O)[C@H]1O[C@H]1O[C@H](CO)[C@@H](O)[C@H](N)[C@H]1O` [Amikacin, reference compound], for which the MIC with S aureus ATCC 29213 (ATCC29213, Amikacin alone, read-out: MIC of Amikacin) worked out at 2 µg/mL; in the data set on S aureus ATCC 29213 (ATCC29213, Tables 5A/5B, Amikacin alone, read-out: MIC Amikacin), 2 µg/mL; in the data set with MRSA 33 (setting [8]), 8 µg/mL; in the data set with MRSA 450 (setting [8]), 16 µg/mL; in the data set with S epidermidis ATCC 12228 (setting [8]), 1 µg/mL; in the data set on B cereus RRL 101 (setting [8]), 1 µg/mL. In addition, in the data set with MRSA [1] (Amikacin alone, read-out: MIC Amikacin), the MIC was determined as 4 µg/mL.
Regarding `O=C(O)c1cn(C2CC2)c2cc(N3CCNCC3)c(F)cc2c1=O` [Ciprofloxacin, reference compound], the MIC was found to be 0.25 µg/mL in the data set on S aureus ATCC 29213 (ATCC29213, Ciprofloxacin alone, read-out: MIC Ciprofloxacin); 0.25 µg/mL in the data set on S aureus ATCC 29213 (ATCC29213, Tables 5A/5B, Ciprofloxacin alone, read-out: MIC Ciprofloxacin); 32 µg/mL in the data set with MRSA 33 (setting [9]); 32 µg/mL in the data set on MRSA 450 (setting [9]); 0.12 µg/mL with S epidermidis ATCC 12228 (setting [9]); 0.12 µg/mL with B cereus RRL 101 (setting [9]). Besides, the MIC was 32 µg/mL in the data set with MRSA [1] (setting [9]), 0.03 to 0.5 µg/mL (≈ 0.0905 to 1.51 µM) with Gm −ve bacteria and 0.5 to 1 µg/mL with M. tb. The ED50 – broadly, the midpoint of the dose-response relation – in [2] came to 9.2 mg/kg.
As to `C/C(=C\C(=O)OCCCCCCCCC(=O)O)C[C@@H]1OC[C@H](C[C@@H]2O[C@H]2[C@@H](C)[C@H](C)O)[C@@H](O)[C@H]1O` [Mupirocin, reference compound], the MIC with S aureus ATCC 29213 (ATCC29213, Mupirocin alone, read-out: MIC of Mupirocin) turned out to be 0.12 µg/mL; in the data set with S aureus ATCC 29213 (ATCC29213, Tables 5A/5B, Mupirocin alone, read-out: MIC Mupirocin), 0.12 µg/mL; in the data set on MRSA 33 (setting [10]), 0.12 µg/mL; with MRSA 450 (setting [10]), 0.25 µg/mL; in the data set on MRSA 15187 it was 0.25 µg/mL; with MRSA [1] (Mupirocin alone, read-out: MIC Mupirocin), 0.12 µg/mL. For the same molecule, in the data set with MRSA [3] (setting [11]), the Growth is listed as 3/5. Moreover, the “Mean CFU” value with MRSA [3] (setting [11]) was 1.08 × 10^4 CFU.
Take `CCC(/C=C/C(=O)N1CCCCC1)=C\c1ccc2c(c1)OCO2` [compound of formula 1a, 4-ethyl-5-(3,4-methylenedioxyphenyl)-2E,4E-pentadienoic acid piperidine amide]: in data set [4], the “reductions in MIC of ciprofloxacin in combination with the potentiator” value was “Two to more than eight fold”. In data set [5], the “potency relative to piperine in reducing the MICs of the antibacterial agents” value was “four times more potent than piperine”. For the same molecule, the Growth was 4/5 in the data set with MRSA [3] (setting [12]), 1/5 in the data set on MRSA [3] (setting [13]) and 0/5 in the data set with MRSA [3] (0.5% Mupirocin + 0.5% compound of formula 1). In addition, the “Mean CFU” value is 2.5 × 10^4 CFU with MRSA [3] (setting [12]) and 4.0 × 10^3 CFU in the data set on MRSA [3] (setting [13]). Also, the wound healing result in the data set with MRSA [3] (combination of mupirocin with compound of formula-1a vs mupirocin cream, MRSA-infected skin wound of mice, five days) is reported as “better wound healing”. Besides, the “LD50 (oral)” value in the data set “Acute toxicity study” is given as greater than 3.0 gm/kg. Also, the “efficacy of combinations with anti-infective agents in vivo” value in [6] is “efficacious”. Also, in data set [7] (S. aureus wild type (FIG. IA)), the “accumulation of ethidium bromide” value is reported as “Increased Accumulation”. Moreover, the “efflux of ethidium bromide” value in [7] (S. aureus wild type (FIG. IB)) is “Decreased Efflux”.
